For 14 molecules, IC50 results are on record in patent US12319672B2, “Alpha-D-galactopyranoside derivatives” (Idorsia Pharmaceuticals Ltd, priority 2019, dated 2025).

As a reminder, the IC50 is the point on the concentration scale where inhibition reaches its midpoint. Higher therefore signals weaker potency in that assay.

One experiment has as its target human Gal-3 (hGal-3) (Homo sapiens (Human), UniProt P17931). The experiment can be described thus: Competitive binding assay: binding of biotinylated hGal-3 to microplate-adsorbed asialofetuin (ASF). The conditions noted are these: Activity on hGal-3; mean values of several measurements. In short, it runs like this:
(§1)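 For hGal-1, a variant with all six cysteines replaced by serines is preferred. Either galectin, biotinylated at 300-1000 ng/mL, competes with compound for microplate-bound ASF over 3 h at 4° C; peroxidase/ABTS detection gives IC50, averaged.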

For another experiment, the target named is human Gal-1 (hGal-1). Kind of experiment: Competitive binding assay: binding of biotinylated hGal-1 to microplate-adsorbed asialofetuin (ASF). The conditions noted are these: Activities on hGal-1; mean values of several measurements. An outline of the steps: as §1
Chain of human Gal-1 (hGal-1) (P09382 2-135 limits assumed): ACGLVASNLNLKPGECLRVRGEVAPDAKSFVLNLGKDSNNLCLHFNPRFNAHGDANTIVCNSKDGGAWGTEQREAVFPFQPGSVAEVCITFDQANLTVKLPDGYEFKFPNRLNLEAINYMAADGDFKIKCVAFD

Chain of human Gal-3 (hGal-3) (P17931 whole entry): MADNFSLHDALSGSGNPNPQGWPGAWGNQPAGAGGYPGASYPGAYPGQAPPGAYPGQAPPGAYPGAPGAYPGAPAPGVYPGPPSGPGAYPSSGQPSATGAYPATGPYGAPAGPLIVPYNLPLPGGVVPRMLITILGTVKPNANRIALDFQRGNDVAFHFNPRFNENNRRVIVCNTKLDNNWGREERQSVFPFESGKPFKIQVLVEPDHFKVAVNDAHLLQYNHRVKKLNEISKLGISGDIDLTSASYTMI

For the molecule `CO[C@@H]1[C@@H](n2cc(-c3cc(F)c(F)c(F)c3)nn2)[C@@H](O)[C@@H](CO)O[C@@H]1Cn1cc(C2(O)CCCC2)nn1` [Example 4.41, (2R,3R,4S,5R,6R)-6-((4-(1-hydroxycyclopentyl)-1H-1,2,3-triazol-1-yl)methyl)-2-(hydroxymethyl)-5-methoxy-4-(4-(3,4,5-trifluorophenyl)-1H-1,2,3-triazol-1-yl)tetrahydro-2H-pyran-3-ol], the results for the IC50 at human Gal-3 (hGal-3) and at human Gal-1 (hGal-1) were 340 nM and 2490 nM, respectively.

On to `CO[C@@H]1[C@@H](n2cc(-c3cc(F)c(F)c(F)c3)nn2)[C@@H](O)[C@@H](CO)O[C@@H]1Cn1cc(C2=CCCC2)nn1` [Example 4.42, (2R,3R,4S,5R,6R)-6-((4-(cyclopent-1-en-1-yl)-1H-1,2,3-triazol-1-yl)methyl)-2-(hydroxymethyl)-5-methoxy-4-(4-(3,4,5-trifluorophenyl)-1H-1,2,3-triazol-1-yl)tetrahydro-2H-pyran-3-ol], for which the 50% inhibitory concentration (IC50) on human Gal-3 (hGal-3) turned out to be 790 nM; at human Gal-1 (hGal-1), 2620 nM.

`CO[C@@H]1[C@@H](n2cc(-c3cc(F)c(F)c(F)c3)nn2)[C@@H](O)[C@@H](CO)O[C@@H]1Cn1cc(C2(O)CCC2)nn1` [Example 4.43, (2R,3R,4S,5R,6R)-6-((4-(1-hydroxycyclobutyl)-1H-1,2,3-triazol-1-yl)methyl)-2-(hydroxymethyl)-5-methoxy-4-(4-(3,4,5-trifluorophenyl)-1H-1,2,3-triazol-1-yl)tetrahydro-2H-pyran-3-ol]: the 50% inhibitory concentration (IC50) was found to be 300 nM at human Gal-3 (hGal-3) and 4430 nM on human Gal-1 (hGal-1).

`CO[C@@H]1[C@@H](n2cc(-c3cc(F)c(F)c(F)c3)nn2)[C@@H](O)[C@@H](CO)O[C@@H]1Cn1cc(C(C)(C)O)nn1` [Example 4.44, (2R,3R,4S,5R,6R)-2-(hydroxymethyl)-6-((4-(2-hydroxypropan-2-yl)-1H-1,2,3-triazol-1-yl)methyl)-5-methoxy-4-(4-(3,4,5-trifluorophenyl)-1H-1,2,3-triazol-1-yl)tetrahydro-2H-pyran-3-ol]: the IC50 on human Gal-3 (hGal-3) amounted to 240 nM; on human Gal-1 (hGal-1), 15000 nM.

With `CO[C@@H]1[C@@H](n2cc(-c3cc(F)c(F)c(F)c3)nn2)[C@@H](O)[C@@H](CO)O[C@@H]1Cc1cn(C(C)(C)C)nn1` [Example 4.45, (2R,3R,4S,5R,6R)-6-((1-(tert-butyl)-1H-1,2,3-triazol-4-yl)methyl)-2-(hydroxymethyl)-5-methoxy-4-(4-(3,4,5-trifluorophenyl)-1H-1,2,3-triazol-1-yl)tetrahydro-2H-pyran-3-ol], the IC50 stood at 85 nM on human Gal-3 (hGal-3) and 1120 nM on human Gal-1 (hGal-1).

Turning to `CO[C@@H]1[C@@H](n2cc(-c3ccc(F)c(F)c3F)nn2)[C@@H](O)[C@@H](CO)O[C@@H]1Cc1cn(C(C)(C)C)nn1` [Example 4.46, (2R,3R,4S,5R,6R)-6-((1-(tert-butyl)-1H-1,2,3-triazol-4-yl)methyl)-2-(hydroxymethyl)-5-methoxy-4-(4-(2,3,4-trifluorophenyl)-1H-1,2,3-triazol-1-yl)tetrahydro-2H-pyran-3-ol], the figures for the IC50 at human Gal-3 (hGal-3) and on human Gal-1 (hGal-1) were 45 nM and 310 nM, respectively.

On to `CO[C@@H]1[C@@H](n2cc(-c3cc(F)c(F)c(F)c3)nn2)[C@@H](O)[C@@H](CO)O[C@@H]1Cn1cc(C2(O)CCCCC2)nn1` [Example 4.47, (2R,3R,4S,5R,6R)-6-((4-(1-hydroxycyclohexyl)-1H-1,2,3-triazol-1-yl)methyl)-2-(hydroxymethyl)-5-methoxy-4-(4-(3,4,5-trifluorophenyl)-1H-1,2,3-triazol-1-yl)tetrahydro-2H-pyran-3-ol], for which the results for the IC50 at human Gal-3 (hGal-3) and on human Gal-1 (hGal-1) were 330 nM and 3060 nM, respectively.

Consider `CO[C@@H]1[C@@H](n2cc(-c3cc(F)c(F)c(F)c3)nn2)[C@@H](O)[C@@H](CO)O[C@@H]1Cn1cc(C2CCCC2)nn1` [Example 4.48, (2R,3R,4S,5R,6R)-6-((4-cyclopentyl-1H-1,2,3-triazol-1-yl)methyl)-2-(hydroxymethyl)-5-methoxy-4-(4-(3,4,5-trifluorophenyl)-1H-1,2,3-triazol-1-yl)tetrahydro-2H-pyran-3-ol], for which the results for the IC50 at human Gal-3 (hGal-3) and on human Gal-1 (hGal-1) were 250 nM and 2860 nM, respectively.

`CO[C@@H]1[C@@H](n2cc(-c3cc(F)c(F)c(F)c3)nn2)[C@@H](O)[C@@H](CO)O[C@@H]1Cn1cc(C2(C)CCCC2)nn1` [Example 4.49, (2R,3R,4S,5R,6R)-2-(hydroxymethyl)-5-methoxy-6-((4-(1-methylcyclopentyl)-1H-1,2,3-triazol-1-yl)methyl)-4-(4-(3,4,5-trifluorophenyl)-1H-1,2,3-triazol-1-yl)tetrahydro-2H-pyran-3-ol]: the IC50 on human Gal-3 (hGal-3) was 240 nM; at human Gal-1 (hGal-1), 3930 nM.

For `CO[C@@H]1[C@@H](n2cc(-c3cc(F)c(F)c(F)c3)nn2)[C@@H](O)[C@@H](CO)O[C@@H]1Cn1cc(C2(C#N)CCCC2)nn1` [Example 4.50, 1-(1-(((2R,3R,4S,5R,6R)-5-hydroxy-6-(hydroxymethyl)-3-methoxy-4-(4-(3,4,5-trifluorophenyl)-1H-1,2,3-triazol-1-yl)tetrahydro-2H-pyran-2-yl)methyl)-1H-1,2,3-triazol-4-yl)cyclopentane-1-carbonitrile], the half-maximal inhibitory concentration (IC50) on human Gal-3 (hGal-3) stood at 330 nM; on human Gal-1 (hGal-1), 4290 nM.

`CO[C@@H]1[C@@H](n2cc(-c3cc(F)c(F)c(F)c3)nn2)[C@@H](O)[C@@H](CO)O[C@@H]1Cn1cc(C2(C)CCOCC2)nn1` [Example 4.51, (2R,3R,4S,5R,6R)-2-(hydroxymethyl)-5-methoxy-6-((4-(4-methyltetrahydro-2H-pyran-4-yl)-1H-1,2,3-triazol-1-yl)methyl)-4-(4-(3,4,5-trifluorophenyl)-1H-1,2,3-triazol-1-yl)tetrahydro-2H-pyran-3-ol]: the IC50 on human Gal-3 (hGal-3) stood at 160 nM; at human Gal-1 (hGal-1) it was 1600 nM.

Take `CO[C@@H]1[C@@H](n2cc(-c3ccc(C)c(F)c3F)nn2)[C@@H](O)[C@@H](CO)O[C@@H]1Cc1cn(C(C)(C)C)nn1` [Example 4.52, (2R,3R,4S,5R,6R)-6-((1-(tert-butyl)-1H-1,2,3-triazol-4-yl)methyl)-4-(4-(2,3-difluoro-4-methylphenyl)-1H-1,2,3-triazol-1-yl)-2-(hydroxymethyl)-5-methoxytetrahydro-2H-pyran-3-ol]: the results for the IC50 on human Gal-3 (hGal-3) and at human Gal-1 (hGal-1) were 53 nM and 730 nM, respectively.

In the case of `CO[C@@H]1[C@@H](n2cc(-c3ccc(Cl)c(F)c3F)nn2)[C@@H](O)[C@@H](CO)O[C@@H]1Cc1cn(C(C)(C)C)nn1` [Example 4.53, (2R,3R,4S,5R,6R)-6-((1-(tert-butyl)-1H-1,2,3-triazol-4-yl)methyl)-4-(4-(4-chloro-2,3-difluorophenyl)-1H-1,2,3-triazol-1-yl)-2-(hydroxymethyl)-5-methoxytetrahydro-2H-pyran-3-ol], the values for the IC50 at human Gal-3 (hGal-3) and on human Gal-1 (hGal-1) were 34 nM and 750 nM, respectively.

As for `CO[C@@H]1[C@@H](n2cc(-c3ccc(C)c(F)c3F)nn2)[C@@H](O)[C@@H](CO)O[C@@H]1Cn1cc(C(C)(C)C)nn1` [Example 4.54, (2R,3R,4S,5R,6R)-6-((4-(tert-butyl)-1H-1,2,3-triazol-1-yl)methyl)-4-(4-(2,3-difluoro-4-methylphenyl)-1H-1,2,3-triazol-1-yl)-2-(hydroxymethyl)-5-methoxytetrahydro-2H-pyran-3-ol], the IC50 at human Gal-3 (hGal-3) came out at 46 nM; on human Gal-1 (hGal-1) it was 1500 nM.
